The values that follow come from patent US20140249139A1, “Quinazoline Derivatives” (NOVARTIS AG, priority 2011, published 2014).

Each structure is given as a SMILES string.

Experiment [1] has as its target T1, PI3K delta (Homo sapiens, UniProt O00329).
T1 construct: myristylation signal (myr) (N); HA tag (N); expressed in transfected cells; host or cells: Rat1 cells, stably transfected
T1 sequence (O00329 1-1044): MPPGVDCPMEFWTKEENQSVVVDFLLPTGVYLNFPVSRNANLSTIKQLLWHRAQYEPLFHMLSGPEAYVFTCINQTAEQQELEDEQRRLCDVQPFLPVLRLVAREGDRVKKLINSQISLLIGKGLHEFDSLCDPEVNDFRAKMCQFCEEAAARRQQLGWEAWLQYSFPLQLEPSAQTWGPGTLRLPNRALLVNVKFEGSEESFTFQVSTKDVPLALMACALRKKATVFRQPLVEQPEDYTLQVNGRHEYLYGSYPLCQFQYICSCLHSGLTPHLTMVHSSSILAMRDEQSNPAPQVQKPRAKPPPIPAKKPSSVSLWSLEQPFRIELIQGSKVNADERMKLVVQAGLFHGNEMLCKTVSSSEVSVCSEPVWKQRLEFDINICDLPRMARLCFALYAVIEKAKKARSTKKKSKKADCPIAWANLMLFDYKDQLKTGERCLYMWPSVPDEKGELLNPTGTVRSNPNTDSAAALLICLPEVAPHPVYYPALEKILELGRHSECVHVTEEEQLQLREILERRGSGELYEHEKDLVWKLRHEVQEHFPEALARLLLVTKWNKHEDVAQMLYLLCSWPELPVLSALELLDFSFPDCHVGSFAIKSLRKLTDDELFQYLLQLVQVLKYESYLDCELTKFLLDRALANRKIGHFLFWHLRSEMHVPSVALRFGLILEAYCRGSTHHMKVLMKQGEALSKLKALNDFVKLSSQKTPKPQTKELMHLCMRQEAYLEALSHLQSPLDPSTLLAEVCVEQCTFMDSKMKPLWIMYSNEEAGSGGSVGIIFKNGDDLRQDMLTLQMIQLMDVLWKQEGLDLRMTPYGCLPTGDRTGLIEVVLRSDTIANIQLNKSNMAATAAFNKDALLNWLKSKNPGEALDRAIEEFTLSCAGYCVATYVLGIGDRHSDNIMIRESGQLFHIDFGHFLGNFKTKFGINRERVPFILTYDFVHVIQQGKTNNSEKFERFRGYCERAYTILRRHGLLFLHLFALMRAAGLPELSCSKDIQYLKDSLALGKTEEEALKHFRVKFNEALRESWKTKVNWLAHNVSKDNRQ
Description: Cellular PI3K delta inhibition: PKB Ser473 phosphorylation in Rat1 cells expressing myr-HA-p110 delta. The experiment is classed as cell-based, rat. The following applies: 1 h incubation, read-out: Cell PI3Kd/ IC50. As for the experimental part:
The compounds tested were prepared as 10 mM stock solutions in DMSO (Merck, #8.02912.2500). Test compounds were prepared in 384 well plates (Greiner PP-Microplate, #781201) in 3-fold serial dilutions in 90% DMSO (Merck, #8.02912.2500) with 8 concentrations starting at 2 mM. Test compounds were prediluted (1:400) in two subsequent 1:20 dilution steps (5 μl+95 μl) from the master plate into starving medium in 384 well plates using a MATRIX PlateMate 2×2 pipettor (384 well-head). 25 μl/well of this 1:400 dilution were then added to the cell culture plate.
The Rat1-myr-HA-p110 alpha, beta and delta cells were trypsinized and counted with a CASY TT cell counter (Schärfe System GmbH, Reutlingen Germany). Rat1 cells expressing myr-HA-p110 alpha, beta and delta were seeded in 384-well plates at 15,000 cells per well in 50 μl/well complete medium and incubated for 20 h at 37° C., 5% CO2 until the cell layers reached 80-90% confluency. […] in 384 well plates using a MATRIX PlateMate 2×2 pipettor (384 well-head). 25 μl/well of this 1:400 dilution were then added to the cell culture plate.
Untreated cells were used as low controls, cells stimulated in absence of compounds were used as high controls. After an incubation of 1 h with compounds, cells were lysed by addition of 15 μl 3× lysis buffer (provided as 5× solution with the SureFire kit) enriched with 0.72% BSA, yielding a total volume of 45 μl cell lysate per well. Cell lysates were either used immediately of stored frozen (in sealed plates) at −20° C. until use. 5 μl of each lysate were transferred to Proxy-plates and mixed with Surefire beads, reaction buffer (containing the appropriate antibodies), activation buffer and dilution buffer according to the instructions of the supplier, yielding a total volume of 12 μl per well (the total final BSA conc. in the assay was 0.1%). After 2 h incubation (with shaking) in the dark at RT, light emission was measured using the EnVision Reader (Perkin Elmer). The difference between high and low controls was taken as 100% and compound effects were expressed as percent inhibition. IC50 values were determined from the dose response curves by graphical extrapolation.

The target of experiment [2] is T2, PI3K alpha (Homo sapiens, UniProt P42336).
T2 construct: for the p110-a subunit (with a deletion of the first 20 amino acids) are generated; His tag (C); made in house; host or cells: baculovirus BV1075; Tn5 (Trichoplusia ni) or TiniPro insect cells
Nature of the experiment: Enzymatic PI3K alpha isoform inhibition (lipid kinase activity, Kinase-Glo). The following applies: enzymatic assay. The experiment is classed as biochemical. The procedure, abridged: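 Reactions were started with ATP (2 μM solution) after the enzyme (10 nM solution) and phosphatidylinositol substrate (5 μg/ml solution) were added to the DMSO-dissolved compounds.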
Background: In Kinase-Glo more light means more ATP remaining.

T2 sequence (P42336 with tags, fused parts or gaps limits assumed, species assumed): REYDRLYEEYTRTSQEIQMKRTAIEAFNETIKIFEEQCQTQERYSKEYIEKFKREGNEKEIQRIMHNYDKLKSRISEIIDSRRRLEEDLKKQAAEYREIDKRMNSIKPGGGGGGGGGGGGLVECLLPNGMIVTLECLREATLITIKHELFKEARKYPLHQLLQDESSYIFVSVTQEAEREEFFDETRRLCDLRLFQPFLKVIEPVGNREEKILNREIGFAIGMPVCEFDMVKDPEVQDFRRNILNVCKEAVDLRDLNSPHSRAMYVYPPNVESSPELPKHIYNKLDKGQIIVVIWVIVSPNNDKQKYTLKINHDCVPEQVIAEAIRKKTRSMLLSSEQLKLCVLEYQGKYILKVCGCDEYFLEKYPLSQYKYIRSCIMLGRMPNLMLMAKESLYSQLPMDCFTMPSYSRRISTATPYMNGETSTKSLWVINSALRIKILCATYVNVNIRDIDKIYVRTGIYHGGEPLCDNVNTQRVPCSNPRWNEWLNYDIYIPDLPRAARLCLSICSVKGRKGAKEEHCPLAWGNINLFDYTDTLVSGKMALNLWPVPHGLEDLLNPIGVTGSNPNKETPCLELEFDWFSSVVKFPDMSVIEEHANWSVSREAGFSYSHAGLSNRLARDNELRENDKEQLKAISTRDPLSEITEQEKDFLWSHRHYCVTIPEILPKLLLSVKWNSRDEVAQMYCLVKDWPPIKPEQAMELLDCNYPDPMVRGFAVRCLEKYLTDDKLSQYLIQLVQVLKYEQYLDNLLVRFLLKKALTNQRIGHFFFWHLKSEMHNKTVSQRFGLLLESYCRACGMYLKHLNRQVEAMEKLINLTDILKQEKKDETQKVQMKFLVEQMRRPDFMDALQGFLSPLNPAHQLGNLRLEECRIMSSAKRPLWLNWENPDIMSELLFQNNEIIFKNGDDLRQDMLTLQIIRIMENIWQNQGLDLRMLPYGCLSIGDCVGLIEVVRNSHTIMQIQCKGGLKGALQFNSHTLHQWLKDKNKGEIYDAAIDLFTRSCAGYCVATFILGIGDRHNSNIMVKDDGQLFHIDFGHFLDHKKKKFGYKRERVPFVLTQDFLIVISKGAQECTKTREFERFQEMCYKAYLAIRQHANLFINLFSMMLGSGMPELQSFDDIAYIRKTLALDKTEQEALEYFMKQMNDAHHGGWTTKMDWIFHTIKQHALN

For the molecule `COc1ncc(-c2ccc3ncnc(-c4cccc(C(=O)N5CCN(C)CC5)c4)c3c2)cn1` [Example 2], the IC50 came to 27.5 nM in experiment [1] and 779 nM in experiment [2].

In the case of `COc1ccc(-c2ccc3ncnc(-c4cccc(C(=O)N5CCN(C(C)=O)CC5)c4)c3c2)cc1S(=O)(=O)N1CCCC1` [Example 7], the figures for the IC50 in experiment [1] and in experiment [2] were 83 nM and 712 nM, respectively.

Take `CNc1ncc(-c2ccc3ncnc(-c4cncc(C(=O)N5CCN(C)CC5)c4)c3c2)cc1C` [Example 75, {5-[6-(5-Methyl-6-methylamino-pyridin-3-yl)-quinazolin-4-yl]-pyridin-3-yl}-(4-methyl-piperazin-1-yl)-methanone]: the IC50 in experiment [1] was 14 nM; in experiment [2], 320 nM.

Turning to `COc1ccc(-c2ccc3ncnc(-c4cncc(C(=O)N5CCNC(C)(C)C5)c4)c3c2)cc1C(F)(F)F` [Example 81, (3,3-Dimethyl-piperazin-1-yl)-{5-[6-(4-methoxy-3-trifluoromethyl-phenyl)-quinazolin-4-yl]-pyridin-3-yl}-methanone], the results for the IC50 in experiment [1] and in experiment [2] were 19.5 nM and 401 nM, respectively.

With `COc1ccc(-c2ccc3ncnc(-c4cccc(C(=O)N5C[C@@H]6C[C@H]5CN6C)c4)c3c2)cn1` [Example 91, {3-[6-(6-Methoxy-pyridin-3-yl)-quinazolin-4-yl]-phenyl}-((1S,4S)-5-methyl-2,5-diaza-bicyclo[2.2.1]hept-2-yl)-methanone], the figures for the IC50 in experiment [1] and in experiment [2] were 32.3 nM and 146 nM, respectively.

In the case of `COc1ccc(-c2ccc3ncnc(-c4cc(F)cc(C(=O)N5CCN(C(C)=O)CC5)c4)c3c2)cn1` [Example 110, 1-(4-{3-Fluoro-5-[6-(6-methoxy-pyridin-3-yl)-quinazolin-4-yl]-benzoyl}-piperazin-1-yl)-ethanone], the IC50 in experiment [1] is 103 nM; in experiment [2] it was 366 nM.

For the molecule `COc1ccc(-c2ccc3ncnc(-c4ccc(C)c(C(=O)N5CC6CC5CN6C)c4)c3c2)cn1` (centres unmarked) [Example 117], the IC50 amounted to 43 nM in experiment [1] and 238 nM in experiment [2].
